What was measured:
PRMT1 [1] = target: T1, PRMT1 (Homo sapiens, UniProt Q99873); assay: Mass spectrometric; format: biochemical; details: inhibitor 0.2 mM; PRMT1 1 μM, SAM 200 μM, H4-20 50 μM, 30°C, 3.5 h
[2] = system: other PRMTs including PRMT5; details: cited from earlier work
PRMT1 [3] = target: T1, PRMT1; assay: Radiometric gel assay with [14C]SAM and H4-20, phosphorimaging; format: biochemical; details: inhibitor 0.2 mM; PRMT1 0.1 μM, [14C]SAM 20 μM, H4-20 100 μM, 30 min, 30°C

T1 sequence (Q99873 1-353 isoform Q99873-3, species assumed): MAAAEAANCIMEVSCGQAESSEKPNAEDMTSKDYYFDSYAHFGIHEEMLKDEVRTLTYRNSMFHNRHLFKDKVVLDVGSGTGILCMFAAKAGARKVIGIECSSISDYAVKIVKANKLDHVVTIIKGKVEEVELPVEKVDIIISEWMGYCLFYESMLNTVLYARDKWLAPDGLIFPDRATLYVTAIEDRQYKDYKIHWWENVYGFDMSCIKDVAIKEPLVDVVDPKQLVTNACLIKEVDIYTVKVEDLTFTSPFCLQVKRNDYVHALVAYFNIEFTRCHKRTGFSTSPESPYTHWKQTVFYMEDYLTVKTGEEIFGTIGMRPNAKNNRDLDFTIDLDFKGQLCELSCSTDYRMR

methyl transfer reaction H4-20 to dimethyl H4-20 (mass spectrum) (PRMT1 [1]): incomplete inhibition | methylation in radiometric gel assay (PRMT1 [3]): methylation was still observed
Compound: N=C(N)c1ccc(-c2ccc(-c3ccc(C(=N)N)cc3)o2)cc1 [Furamidine, furamidine]
selectivity over the other PRMTs including PRMT5 [2]: > 10 fold
